What all share (assay type): ADME, cell-based
The subject of series [1] is A549. In words: Drug uptake in human A549 cells at 250 kBq by gamma-counting. The conditions noted are these: TDE = time-dependent effect.
In series [2] the test system is A549. In words: Drug uptake in human A549 cells at 250 kBq after 30 mins by gamma-counting. Conditions: a549, 0.5 h; call rule not given here.
For series [3], the system named is HT-29. In words: Drug uptake in human HT-29 cells at 250 kBq after 20 mins by gamma-counting. The conditions noted are these: ht-29, 20 min.
Series [4] has as its system A549. In words: Drug uptake in human A549 cells at 250 kBq after 30 mins by gamma-counting in presence of L-glutamic acid. Conditions: a549, 0.5 h.
The subject of series [5] is HT-29. Kind of series: Drug uptake in human HT-29 cells at 250 kBq after 20 mins by gamma-counting in presence of L-glutamic acid. Conditions: ht-29, 20 min.
Series [6] relates to A549. Kind of series: Drug uptake in human A549 cells at 250 kBq after 20 mins by gamma-counting. Conditions: a549, 20 min.
Series [7] has as its system A549. In words: Drug uptake in human A549 cells at 250 kBq after 30 mins by gamma-counting in presence of D-glucose. The conditions noted are these: a549, 0.5 h.
In series [8] the test system is HT-29. In words: Drug uptake in human HT-29 cells at 250 kBq after 20 mins by gamma-counting in presence of D-glucose. The conditions noted are these: ht-29, 20 min.

Turning to `N[C@@H](CC([18F])C(=O)O)C(=O)O` (stereo not given in full), the Drug uptake result is recorded as “tde” in series [1]; 12% in series [2]; 4% in series [3]; “Not Active” in series [4]; “Not Active” in series [5]; 9.3% in series [6].

Turning to `N[C@@H](C[C@H](F)C(=O)O)C(=O)O`, the Drug uptake entry in series [2] is listed as “Active”.

With `N[C@@H](C[C@@H](F)C(=O)O)C(=O)O`, the Drug uptake entry in series [2] is given as “Active”.

For `OC[C@H]1O[C@@H](O)[C@H]([18F])[C@@H](O)[C@@H]1O` [FLUDEOXYGLUCOSE-F18], the Drug uptake result in series [7] and in series [8] was “Not Active” in each case.
